Source: publication PMC4412765 (Chemical biology & drug design, 2014)
Read-outs that look alike come from different tables or passages of the source.

Tests used:
M. smegmatis = test: Activity against the M. tuberculosis model M. smegmatis; assay type: cell-based
cis-DPPS (Rv2361c) = cis-DPPS (Rv2361c) (Mycobacterium tuberculosis, UniProt P9WFF7)
UPPS = conditions: cited from earlier work
Rv3378c = Rv3378c (Mycobacterium tuberculosis, UniProt P9WJ61)
S. aureus = conditions: cited from earlier work

Chain of cis-DPPS (Rv2361c) (P9WFF7 whole entry): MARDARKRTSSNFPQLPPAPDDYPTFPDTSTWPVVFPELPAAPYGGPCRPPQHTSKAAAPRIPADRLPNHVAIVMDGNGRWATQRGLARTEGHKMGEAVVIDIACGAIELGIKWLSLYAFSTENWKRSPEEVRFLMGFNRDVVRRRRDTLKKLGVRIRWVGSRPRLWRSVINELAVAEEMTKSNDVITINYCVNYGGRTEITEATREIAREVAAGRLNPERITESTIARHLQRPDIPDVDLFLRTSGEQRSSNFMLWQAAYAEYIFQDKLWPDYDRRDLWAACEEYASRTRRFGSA
Chain of Rv3378c (P9WJ61 whole entry): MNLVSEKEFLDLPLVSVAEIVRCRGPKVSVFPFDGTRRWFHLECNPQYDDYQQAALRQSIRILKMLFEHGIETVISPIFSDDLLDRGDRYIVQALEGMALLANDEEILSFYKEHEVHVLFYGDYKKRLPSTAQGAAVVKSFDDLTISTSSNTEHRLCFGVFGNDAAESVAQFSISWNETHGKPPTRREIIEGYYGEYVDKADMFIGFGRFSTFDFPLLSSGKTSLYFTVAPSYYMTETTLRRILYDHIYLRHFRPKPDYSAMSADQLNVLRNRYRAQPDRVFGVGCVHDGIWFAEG

O=P(O)(O)C(O)(Cc1cccc(-c2cccc3c2oc2ccccc23)c1)P(=O)(O)O [BPH-629]
activity against M. smegmatis (M. smegmatis): inactive | IC50 (cis-DPPS (Rv2361c); read-out: IC50 against DPPS, cis-FPP as substrate): 610 nM

Cl.Cl.O=C(Nc1cccc(C2=NCCN2)c1)c1ccc(-c2ccc(C(=O)Nc3cccc(C4=NCCN4)c3)cc2)cc1 [BPH-1358]
UPPS inhibition (UPPS): potent UPPS inhibitor | activity against Rv3378c (Rv3378c): inactive

C(=C\c1cc2ccc(C3=NCCN3)cc2[nH]1)/c1cc2ccc(C3=NCCN3)cc2[nH]1 [BPH-1417]
in vivo activity against S. aureus (S. aureus): potent | IC50 (cis-DPPS (Rv2361c); read-out: IC50 against DPPS, depending on substrate): 500 to 20000 nM | IC50 (cis-DPPS (Rv2361c); read-out: IC50 against cis-DPPS, substrate not stated): 1300 nM
